Values of other authors in US20090105222A1, “PREVENTION AND TREATMENT OF […] DISORDERS, INCLUDING STRESS-RELATED DISORDERS” (Cypress Bioscience, Inc., priority 2002, published 2009).

Biological target: NMDA receptor
Conditions: reported in literature (Shuto et al.); read-out: IC50 value, NMDA receptor antagonistic properties

In the case of CCN(CC)C(=O)C1(c2ccccc2)CC1CN (stereo not shown) [milnacipran], the IC50 is listed as about 6.3 µM.
